From publication PMC12564302, “Discovery of N-Hydroxypyridinedione-Based Inhibitors of HBV RNase H: Design, Synthesis, and Extended SAR Studies” (International Journal of Molecular Sciences, 2025)
In brackets after ≈: the same amount, converted by molar mass. Entries after “also recorded” stand apart in the source; their conditions may differ. Read-outs that look alike come from different tables or passages of the source.

Experiments:
[1] = test system: HBV replication in HepDES19 cells; experiment: qPCR HBV replication inhibition assay; format: cell-based, HBV genotype D; details: for EC50: Hepatitis B virus, HepDES19, 72 h
Method: (§1) HepDES19 cells are a HepG2 cell-line derivative that has been stably transfected with an HBV genotype D genome containing a tetracycline repressible promoter. HepDES19 cells were maintained on collagen-coated plates in Dulbecco’s modified Eagle’s medium (DMEM/F12) (Cytiva Life Sciences, Marlborough, MA, USA) supplemented with 10% fetal bovine serum (FBS), streptomycin (100 µg/mL), and penicillin (100 IU/mL), and incubated at 37 °C with 5% CO2 and saturating humidity. Cells were cultured with 1 µg/mL tetracycline to inhibit the expression of the stably integrated HBV genome, and HBV replication was activated upon removal of tetracycline from the culture medium.
HBV replication inhibition in HepDES19 cells was assessed using a strand-preferential quantitative PCR assay as previously described. HepDES19 cells were seeded in 96 well plates at 4 × 10^4 cells/well for 48 h followed by the addition of serial diluted compound with a final concentration of 1% DMSO for 72 h, after which cells were lysed, and qPCR was performed as described in Li et al.. Effective concentration 50% (EC50) values were calculated from data for the (+) polarity DNA strand data using GraphPad Prism version 10’s four-parameter log (inhibitor) versus response algorithm, with the bottom value set to zero. Three or more replicate assays were performed on different days.

[2] = Parallel artificial membrane permeability assay; format: in vitro ADME; details: PAMPA, pH 7.4, PAMPA
Method: The evaluation of apparent passive permeability (Papp) at pH 7.4 was performed using a donor/acceptor cassette (Innovative Laboratory Products, Phoenix, AZ, USA and Sigma Aldrich, Burlington, MA, USA), which simulates the apical and basolateral sides of the small intestine epithelium, as previously described. An artificial membrane made of 1% w/v lecithin/dodecane was applied to the poly (vinylidene fluoride) (PVDF) membrane filter and allowed to dry. Following drying, compounds (200 µM) were diluted in buffer at pH 7.4 and added to the donor side of the cassette. The same pH buffer was added on the acceptor side of the cassette, after which it was assembled and incubated at room temperature with shaking at 250 rpm for 2 h, before reading the absorbance of 100 µL from the acceptor well on a plate reader between 230 and 700 nm. The Papp (cm/s) values for compounds were determined by normalizing to the compound absorbance at equilibrium using the peak absorbance point for each compound, buffer volume, incubation time, and membrane porosity. Two or more replicate assays were conducted on different days.

[3] = MTS cytotoxicity assay; format: cell-based; details: human, HepDES19 cells, pH 7.4
Method: as §1
Cell viability was assessed using the CellTiter 96^TM Aqueous Non-Radioactive Cell Proliferation assay (MTS) (Promega, Madison, WI, USA) as described previously. HepDES19 cells were seeded in 96 well plates at 1 × 10^4 cells/well for 48 h. Cells were then incubated with serial diluted compound, with a final concentration of 1% DMSO, for 72 h. Following compound incubation, background absorbance values were subtracted, and the data were converted into percent cell viability. The cytotoxic concentration 50% (CC50) values were calculated using GraphPad Prism’s four-parameter log (inhibitor) versus response algorithm, with the bottom value set to zero. Three or more replicate assays were performed on different days.

[4] = Solubility limit assay; format: physicochemical; details: DMEM-F12 without phenol red with 10% FBS, pH 7.4, plasma or biological fluid, kinetic from dmso stock
Method: Solubility limits of compounds were tested as previously reported in DMEM-F12 without phenol red (Gibco, Grand Island, NY, USA) but with the media supplemented with 10% FBS (pH 7.4) to mimic cell culture experiments. In a 384-well optically clear plate, compounds were serially diluted in pH 7.4 buffer (upper limit 200 µM, DMSO 1%) then read at 620 nm. Solubility limits were determined by plotting compound concentration (µM) against optical density (OD) and identifying an inflexion point. The inflexion point is defined by a substantial increase in OD brought on by increasing turbidity, and the compound concentration at this point is known as the solubility limit. Each compound had at least two replicate assays performed on different days.

[5] = experimental potencies of the E/Z mixture, read-out: EC50 mix
[6] = pH 7.4, HepDES19 cells, 72 h, (+) polarity DNA strand, pH 7.4, read-out: EC50
[7] = pH 7.4, 200 µM, 2 h, read-out: Papp
[8] = pH 7.4, read-out: Papp Interpretation
[9] = pH 7.4, DMEM-F12 with 10% FBS, 1% DMSO, upper limit 200 µM, read-out: Solubility Limit
[10] = pH 7.4, read-out: Solubility Limit Interpretation

CC(=NOCc1ccc(Cl)c(Cl)c1)c1c(C)cc(=O)n(O)c1O [Compound 30, 5-(1-(((3,4-dichlorobenzyl)oxy)imino)ethyl)-1,6-dihydroxy-4-methylpyridin-2(1H)-one]
EC50 [1, 5]: 1770 ± 700 nM | EC50 [1, 6]: 1770 ± 700 nM | Papp at 2 h, 200 µM [2, 7]: 1.59 ×10⁻⁶ cm/s | Papp at 2 h, 200 µM [2, 8]: > 1 ×10⁻⁶ cm/s | CC50 at 72 h [3]: 49.7 ± 16.4 µM | solubility [4, 9]: > 200 µM | solubility [4, 10]: > 100 µM

CC(=NOCc1ccc(Cl)cc1Cl)c1c(C)cc(=O)n(O)c1O [Compound 31, 5-(1-(((2,4-dichlorobenzyl)oxy)imino)ethyl)-1,6-dihydroxy-4-methylpyridin-2(1H)-one]
EC50 [1, 5]: 530 ± 300 nM | EC50 [1, 6]: 500 nM | Papp at 2 h, 200 µM [2, 7]: 4 ×10⁻⁶ cm/s | Papp at 2 h, 200 µM [2, 8]: > 1 ×10⁻⁶ cm/s | CC50 at 72 h [3]: 34.4 ± 14.1 µM | solubility [4, 9]: > 200 µM | solubility [4, 10]: > 100 µM

CC(=NOCc1ccccc1I)c1c(C)cc(=O)n(O)c1O [Compound 32, 1,6-dihydroxy-5-(1-(((2-iodobenzyl)oxy)imino)ethyl)-4-methylpyridin-2(1H)-one]
EC50 [1, 5]: 1770 ± 500 nM | EC50 [1, 6]: 1770 ± 500 nM | Papp at 2 h, 200 µM [2, 7]: 3.29 ×10⁻⁶ cm/s | Papp at 2 h, 200 µM [2, 8]: > 1 ×10⁻⁶ cm/s | CC50 at 72 h [3]: 54.1 ± 13.7 µM | solubility [4, 9]: 100 µM (≈ 41.4 µg/mL) | solubility [4, 10]: > 100 µM

CC(=NCc1ccccc1Br)c1c(C)cc(=O)n(O)c1O [Compound 33, 5-(1-((2-bromobenzyl)imino)ethyl)-1,6-dihydroxy-4-methylpyridin-2(1H)-one]
EC50 [1, 6]: 8450 ± 3500 nM | Papp at 2 h, 200 µM [2, 7]: 1.22 ×10⁻⁶ cm/s | Papp at 2 h, 200 µM [2, 8]: > 1 ×10⁻⁶ cm/s | CC50 at 72 h [3]: 51.3 ± 20.9 µM | solubility [4, 9]: > 200 µM | solubility [4, 10]: > 100 µM

CC(=NCc1cccc(Br)c1)c1c(C)cc(=O)n(O)c1O [Compound 34, 5-(1-((3-bromobenzyl)imino)ethyl)-1,6-dihydroxy-4-methylpyridin-2(1H)-one]
EC50 [1, 6]: 13600 ± 2800 nM | Papp at 2 h, 200 µM [2, 7]: 1.11 ×10⁻⁶ cm/s | Papp at 2 h, 200 µM [2, 8]: > 1 ×10⁻⁶ cm/s | CC50 at 72 h [3]: 22.6 ± 16.7 µM | solubility [4, 9]: > 200 µM | solubility [4, 10]: > 100 µM

CC(=NCc1ccc(Br)cc1)c1c(C)cc(=O)n(O)c1O [Compound 35, 5-(1-((4-bromobenzyl)imino)ethyl)-1,6-dihydroxy-4-methylpyridin-2(1H)-one]
EC50 [1, 6]: 15000 ± 10700 nM | Papp at 2 h, 200 µM [2, 7]: 3.15 ×10⁻⁶ cm/s | Papp at 2 h, 200 µM [2, 8]: > 1 ×10⁻⁶ cm/s | CC50 at 72 h [3]: 44.4 ± 34.4 µM | solubility [4, 9]: > 200 µM | solubility [4, 10]: > 100 µM

CC(=NCc1ccccc1Cl)c1c(C)cc(=O)n(O)c1O [Compound 36, 5-(1-((2-chlorobenzyl)imino)ethyl)-1,6-dihydroxy-4-methylpyridin-2(1H)-one]
EC50 [1, 6]: 2770 ± 800 nM | Papp at 2 h, 200 µM [2, 7]: 3.04 ×10⁻⁶ cm/s | Papp at 2 h, 200 µM [2, 8]: > 1 ×10⁻⁶ cm/s | CC50 at 72 h [3]: 52.7 ± 29.3 µM | solubility [4, 9]: 167 µM (≈ 51.1 µg/mL) | solubility [4, 10]: > 100 µM

CC(=NCc1cccc(Cl)c1)c1c(C)cc(=O)n(O)c1O [Compound 37, 5-(1-((3-chlorobenzyl)imino)ethyl)-1,6-dihydroxy-4-methylpyridin-2(1H)-one]
EC50 [1, 6]: 4730 ± 4400 nM | Papp at 2 h, 200 µM [2, 7]: 5.41 ×10⁻⁶ cm/s | Papp at 2 h, 200 µM [2, 8]: > 1 ×10⁻⁶ cm/s | CC50 at 72 h [3]: 34 ± 23 µM | solubility [4, 9]: > 200 µM | solubility [4, 10]: > 100 µM

CC(=NCc1ccc(Cl)cc1)c1c(C)cc(=O)n(O)c1O [Compound 38, 5-(1-((4-chlorobenzyl)imino)ethyl)-1,6-dihydroxy-4-methylpyridin-2(1H)-one]
EC50 [1, 6]: 18900 ± 8400 nM | Papp at 2 h, 200 µM [2, 7]: 3.07 ×10⁻⁶ cm/s | Papp at 2 h, 200 µM [2, 8]: > 1 ×10⁻⁶ cm/s | CC50 at 72 h [3]: 22.9 ± 7 µM | solubility [4, 9]: > 200 µM | solubility [4, 10]: > 100 µM

CC(=NOCc1ccccc1Cl)C1C(=O)NC(=O)NC1=O [Compound 45, 5-(1-(((2-chlorobenzyl)oxy)imino)ethyl)pyrimidine-2,4,6(1H,3H,5H)-trione]
anti-HBV activity (in words) ([1]; HepDES19 cells): inactive; also recorded: lack of inhibition; also recorded: lack of activity | EC50 [1, 6]: 100000 nM | CC50 at 72 h [3]: 100 µM
